Laboratory results taken from ChEMBL document CHEMBL4387790, “Ophiobolin-Type Sesterterpenoids from the Mangrove Endophytic Fungus Aspergillus sp. ZJ-68” (J Nat Prod, 2019).

Experiments:
[1] = target: T1, Phosphotyrosine protein phosphatase (Mycobacterium tuberculosis, UniProt A0A045ISB3); assay: Inhibition of Mycobacterium tuberculosis H37Ra PTPB expressed in Escherichia coli BL21 (DE3) using p-nitrophenyl phosphate as substrate preincubated for 10 mins followed by substrate addition and measured for 5 mins by spectrophotometric analysis
T1 sequence (A0A045ISB3 whole entry): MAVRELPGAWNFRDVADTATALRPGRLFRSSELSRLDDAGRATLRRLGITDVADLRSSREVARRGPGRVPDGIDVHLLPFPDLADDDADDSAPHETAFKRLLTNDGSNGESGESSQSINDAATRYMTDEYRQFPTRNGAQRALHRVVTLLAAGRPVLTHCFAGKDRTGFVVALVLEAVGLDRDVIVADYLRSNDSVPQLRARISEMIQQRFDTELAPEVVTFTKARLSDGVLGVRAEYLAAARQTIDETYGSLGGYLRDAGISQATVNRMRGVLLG

[2] = system: RAW264.7; assay: Anti-inflammatory activity in mouse RAW264.7 cells assessed as inhibition of lipopolysaccharide-induced nitric oxide production incubated for 24 hrs coincubated with LPS by Griess reagent based assay; assay type: functional, cell-based; details: RAW264.7, 24 h
[3] = Cytotoxicity against mouse RAW264.7 cells assessed as reduction in cell viability by MTT assay; assay type: cell-based
[4] = system: RAW264.7; assay: Anti-inflammatory activity in mouse RAW264.7 cells assessed as inhibition of lipopolysaccharide-induced nitric oxide production at 50 uM incubated for 24 hrs coincubated with LPS by Griess reagent based assay; assay type: functional; details: RAW264.7, 24 h
[5] = target: T1, Phosphotyrosine protein phosphatase; assay: Inhibition of Mycobacterium tuberculosis H37Ra PTPB using p-nitrophenyl phosphate as substrate

Structure (SMILES)	IC50 [1]	IC50 [2]	CC50 [3]	inhibition at 50 µM [4]	IC50 [5]
CO[C@]12C[C@@](C)(O)[C@H]3C[C@@]4(C)CC[C@H]([C@@H](C)/C=C\C=C(C)C)[C@@H]4C/C=C(/C(=O)N1)[C@@H]32	42 µM	42 µM	> 50 µM		
CC1=CC(=O)[C@H]2/C(C=O)=C\C[C@H]3[C@@H]([C@@H](C)/C=C\[C@H](O)C(C)(C)O)CC[C@]3(C)C[C@H]12	> 50 µM	14 µM	> 50 µM		
CC1=CC(=O)[C@@H]2/C(C=O)=C\C[C@H]3[C@@H]([C@@H](C)/C=C\[C@@H](O)C(C)(C)O)CC[C@]3(C)C[C@H]12	> 50 µM	> 50 µM	> 50 µM	< 40%	
CC(C)=C/C=C\[C@H](C)[C@H]1CC[C@]2(C)C[C@@H]3C(C)=CC(=O)[C@@H]3/C(C=O)=C\C[C@@H]12	24 µM		21 µM		
CC(C)=C/C=C\[C@H](C)[C@H]1CC[C@]2(C)C[C@@]3(O)[C@H](C)C[C@@H](O)[C@@H]3/C(C=O)=C\C[C@@H]12	> 50 µM	> 50 µM	> 50 µM		
CC(C)=C/C=C\[C@H](C)[C@H]1CC[C@]2(C)C[C@H]3[C@@H]4/C(=C\C=C\12)C(=O)N[C@@H]4C[C@@]3(C)O	> 50 µM	> 50 µM	> 50 µM		
CC(C)=C/C=C\[C@H](C)[C@H]1CC[C@]2(C)C[C@@H]3C(C)=CC(=O)[C@H]3/C(C=O)=C\C[C@@H]12	> 50 µM		3.8 µM		
CC(C)=C/C=C\[C@H](C)[C@H]1CC[C@]2(C)C[C@H]3[C@@H](C(=O)C[C@@]3(C)O)/C(C=O)=C\C[C@@H]12	> 50 µM		15 µM		
CC(C)=C/C=C\[C@H](C)[C@H]1CC[C@]2(C)C[C@@H]3C(C)=CC(=O)[C@H]3/C(C(=O)O)=C\C[C@@H]12	28 µM	> 50 µM	> 50 µM		
CC(C)=C/C=C\[C@H](C)[C@H]1CC[C@]2(C)C[C@H]3[C@H]4/C(=C\C[C@@H]12)C(=O)O[C@H]4C[C@@]3(C)O	> 50 µM		29 µM		
CC(C)=C/C=C\[C@H](C)[C@H]1CC[C@]2(C)C[C@H]3[C@@H]4/C(=C\C=C\12)C(=O)N[C@]4(O)C[C@@]3(C)O	39 µM	> 50 µM	> 50 µM		
COc1ccc2c(c1)c(CC(=O)O)c(C)n2C(=O)c1ccc(Cl)cc1 [INDOMETHACIN]		38 µM	> 50 µM		
CO[C@]12C[C@@](C)(O)[C@H]3C[C@@]4(C)CC[C@H]([C@@H](C)/C=C\C=C(C)C)/C4=C/C=C(/C(=O)N1)[C@@H]32	> 50 µM	> 50 µM	> 50 µM		
CC1=CC(=O)[C@H]2/C(C=O)=C\C[C@H]3[C@@H]([C@@H](C)/C=C\[C@@H]4OC4(C)C)CC[C@]3(C)C[C@H]12	35 µM	24 µM	> 50 µM		
CC(C)=C/C=C\[C@H](C)[C@H]1CC[C@]2(C)C[C@@H]3C(C)=CC(=O)[C@H]3/C(CO)=C\C[C@@H]12	37 µM	25 µM	> 50 µM		
C[C@@H](/C=C\[C@H](O)C(C)(C)O)[C@H]1CC[C@]2(C)C[C@H]3[C@@H](C(=O)C[C@@]3(C)O)/C(C=O)=C\C[C@@H]12	> 50 µM	16 µM	> 50 µM		
CC(C)=C/C=C\[C@H](C)[C@H]1CC[C@]2(C)C[C@H]3[C@@H]4/C(=C\C[C@@H]12)CO[C@]4(O)C[C@@]3(C)O	> 50 µM		18 µM		
CC(C)=C/C=C\[C@H](C)[C@H]1CC[C@]2(C)C[C@H]3[C@@H](/C(C=O)=C\C[C@@H]12)[C@H](O)C[C@@]3(C)O	> 50 µM	9.6 µM	> 50 µM		
CC(C)=C/C=C\[C@H](C)[C@H]1CC[C@]2(C)C[C@H]3[C@@H]4/C(=C\C[C@@H]12)C(=O)O[C@]4(O)C[C@@]3(C)O	36 µM	> 50 µM	> 50 µM		
CC(C)[C@H]1CC[C@@]2(C)CC[C@]3(CO)CC4=C(C(=O)O)CC[C@H]4[C@]4(C)C[C@@H]4[C@H]3[C@H]12					2.2 µM
CC(C)=C/C=C\[C@H](C)[C@H]1CC[C@]2(C)CC3=C(C(=O)C[C@H]3C)/C(CO)=C\C[C@@H]12	> 50 µM	14 µM	> 50 µM		
CC1=CC(=O)[C@H]2/C(C=O)=C\C[C@H]3[C@@H]([C@@H](C)/C=C\[C@@H](O)C(C)(C)O)CC[C@]3(C)C[C@H]12	> 50 µM	> 50 µM	> 50 µM		
CC(C)=C/C=C\[C@H](C)[C@H]1CC[C@]2(C)C[C@H]3[C@H](C(=O)C[C@@]3(C)O)/C(C=O)=C\C[C@@H]12	> 50 µM		4.8 µM		
CC1=CC(=O)[C@@H]2/C(C=O)=C\C[C@H]3[C@@H]([C@@H](C)/C=C\[C@H](O)C(C)(C)O)CC[C@]3(C)C[C@H]12	19 µM	21 µM	> 50 µM		
CC(C)=C/C=C\[C@H](C)[C@H]1CC[C@]2(C)C[C@H]3[C@H]4/C(=C\C[C@@H]12)CO[C@@]4(O)C[C@@]3(C)O	> 50 µM		31 µM		
